According to PubChem BioAssay (NCI):
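Interpolation was linear, between the two tested concentrations surrounding the appropriate level; five concentrations were tested over 48 hours in 96-well plates. The concentration for 50% growth inhibition is given as GI50. TGI: total growth inhibition.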

What was measured:
Test in all cases: growth of human tumour cells (NCI), 48 h
CAKI-1 renal = tested on: CAKI-1 renal
LXFL 529 NSCLC = tested on: LXFL 529 NSCLC
M19-MEL melanoma = tested on: M19-MEL melanoma
NCI-H460 lung = tested on: NCI-H460 lung
OVCAR-4 ovarian = tested on: OVCAR-4 ovarian
SNB-19 CNS = tested on: SNB-19 CNS
SNB-75 CNS = tested on: SNB-75 CNS
ACHN renal = tested on: ACHN renal
MDA-MB-231 breast = tested on: MDA-MB-231 breast
SN12C renal = tested on: SN12C renal

| SMILES | TGI (CAKI-1 renal) [µM] | TGI (LXFL 529 NSCLC) [µM] | TGI (M19-MEL melanoma) [µM] | TGI (NCI-H460 lung) [µM] | TGI (OVCAR-4 ovarian) [µM] | TGI (SNB-19 CNS) [µM] | TGI (SNB-75 CNS) [µM] | GI50 (ACHN renal) [µM] | TGI (ACHN renal) [µM] | GI50 (CAKI-1 renal) [µM] | GI50 (MDA-MB-231 breast) [µM] | TGI (MDA-MB-231 breast) [µM] | GI50 (NCI-H460 lung) [µM] | GI50 (OVCAR-4 ovarian) [µM] | GI50 (SN12C renal) [µM] | TGI (SN12C renal) [µM] | GI50 (SNB-19 CNS) [µM] | GI50 (SNB-75 CNS) [µM] |
| --- | --- | --- | --- | --- | --- | --- | --- | --- | --- | --- | --- | --- | --- | --- | --- | --- | --- | --- |
| O=C1NC2(O)c3ccccc3C(=O)C2(O)N1c1ccccc1 (stereo unspecified) | > 100 | > 100 | > 100 | > 100 | > 100 | > 100 | > 100 |  |  |  |  |  |  |  |  |  |  |  |
| O=C(Nc1ccc(Nc2ccncc2)cc1)c1ccc(Nc2ccnc3ccc([N+](=O)[O-])cc23)cc1 | > 100 |  |  | > 100 | > 100 | > 100 | > 100 | > 100 | > 100 | > 100 | 78.2 | > 100 | 6.27 | > 100 | > 100 | > 100 | > 100 | > 100 |
| Cc1cc2c(C(N)=O)cccc2n1-c1nc2c(c(NCc3ccccc3)n1)CCCN2 | 0.333 |  |  | 0.661 | 0.396 | 0.765 | 0.342 | 0.236 | 0.791 | 0.151 | 0.186 | 0.394 | 0.232 | 0.178 | 0.134 | 0.335 | 0.296 | 0.153 |
| O=C(c1cc(-c2cc3c(cc2C(=O)N2Cc4ccccc4C[C@H]2CN2CCOCC2)OCO3)n2c1CCCC2)N(c1ccccc1)c1ccc(O)cc1 | > 100 |  |  | > 100 | > 100 | > 100 | > 100 | 9.36 | > 100 | 3.56 | 10.9 | 53.3 | 7.09 | 8.35 | 8.6 | > 100 | 7.13 | 3.61 |
| COc1ccc(C(=O)c2cc(OC)c(OC)c(OC)c2)cc1O | > 100 |  |  | > 100 | > 100 | > 100 | > 100 | 0.0433 | > 100 | 0.363 | 0.0559 | > 100 | 0.0373 | 0.61 | 0.0668 | > 100 | 0.268 | < 0.01 |
| COc1ccc(C2=C(c3cn(C)c4ccccc34)C(=O)NC2=O)cc1OC | > 25 |  |  | > 25 | > 25 | > 25 | 7.08 | 6.35 | > 25 | 5.78 | 10.7 | > 25 | 8.52 | 10.6 | 8.91 | > 25 | > 25 | 0.743 |
| Cc1ccc(C(=O)N/N=C/c2cccc(Oc3ccccc3)c2)cn1 | > 100 |  |  | > 100 | > 100 | > 100 | > 60.7 | 45.9 | > 100 | 4.41 | 22.9 | > 100 | 4.05 | 26.6 | 17.3 | > 100 | 10.3 | 4.85 |
| Cc1ccc(NS(=O)(=O)c2cc(C)ccc2C)cc1 | 29.2 |  |  | 13.5 | > 100 | > 100 | 24.8 | 12.7 | 90 | 3.25 | 4.44 | 25.7 | 3.4 | 20.9 | 5.89 | 19.9 | 4.36 | 3.15 |
| O=C(N/N=C/c1ccc(O)cc1O)c1ccc(Nc2ccnc(C(F)(F)F)c2)cc1 | 1.8 |  |  | > 100 | > 100 | > 56.5 | 26.7 | 31.8 | > 100 | 0.0533 | 5.83 | 57.2 | > 100 |  | 24.4 | > 100 | 14 | 3.72 |
| c1cncc(CNc2ccccc2-c2nnc(Nc3ccc4c(c3)OCCO4)o2)c1 | > 100 |  |  | > 32.5 | 42.5 | > 100 | > 100 | 1.08 | > 100 | 0.215 | 0.644 | > 100 | 0.148 | 0.549 | 0.482 | > 100 | 0.345 | 0.0527 |
| COc1cc2c(OC)c(c1)CCCC1=CC(=O)C=C(CCC2)C1=O | > 100 |  |  | > 100 | 31.1 | > 100 | > 100 |  | > 100 |  |  | > 66.4 |  |  |  | > 31.6 |  |  |
| Cc1cc(-c2nc3ccc(O)cc3s2)ccc1N | > 100 |  |  | > 100 | > 100 | > 100 | 71 | 53.9 | > 100 |  | 44.7 | > 100 | 38.9 | 37.2 | 39 | > 100 | 46 | 15.8 |
| CC1(C)N=C(N)N=C(N)N1c1cccc(CCCCc2ccc(S(=O)(=O)F)cc2Cl)c1 | > 100 |  |  | > 38.6 | > 100 | 20.6 | 23.9 | 8.66 | > 100 | 9.21 | 10.9 | 43.1 | 0.465 | 13.9 | 0.834 | 22.5 | 1.64 | 2.74 |
| COc1cccc(/C=C/C(=O)c2cc3c(N)c(C(=O)Nc4cccc(Cl)c4C)sc3nc2C)c1 | 2.53 |  |  | 4.45 | > 14.1 | 6.18 | > 12.1 | 0.811 | 1.95 | 0.884 | 1.13 | 2.68 | 1.38 | 1.64 | 1.21 | 3.43 | 1.29 | 0.679 |
| C#CC[C@H](c1nc2cc(Cl)ccc2c(=O)n1Nc1ccccc1)N(CCCN)C(=O)c1cccc(Cl)c1F | 8.19 |  |  | 1.31 | 2.54 | 7.85 | 1.53 | 1.73 | 3.89 | 2.6 | 0.107 | 0.601 | 0.161 | 1.16 | 0.205 | 1.98 | 0.52 | 0.251 |
